{"source": "patent US9067894B1", "about": "“Compound, composition, and method of activating GIRK potassium channel and use of same for treating conditions of interest” (Vanderbilt University, priority 2013, dated 2015)", "key": {"[1]": {"target": "T1, GIRK1/2 (Homo sapiens, UniProt P48051+P48549)", "T1 sequence (P48549 1-501)": "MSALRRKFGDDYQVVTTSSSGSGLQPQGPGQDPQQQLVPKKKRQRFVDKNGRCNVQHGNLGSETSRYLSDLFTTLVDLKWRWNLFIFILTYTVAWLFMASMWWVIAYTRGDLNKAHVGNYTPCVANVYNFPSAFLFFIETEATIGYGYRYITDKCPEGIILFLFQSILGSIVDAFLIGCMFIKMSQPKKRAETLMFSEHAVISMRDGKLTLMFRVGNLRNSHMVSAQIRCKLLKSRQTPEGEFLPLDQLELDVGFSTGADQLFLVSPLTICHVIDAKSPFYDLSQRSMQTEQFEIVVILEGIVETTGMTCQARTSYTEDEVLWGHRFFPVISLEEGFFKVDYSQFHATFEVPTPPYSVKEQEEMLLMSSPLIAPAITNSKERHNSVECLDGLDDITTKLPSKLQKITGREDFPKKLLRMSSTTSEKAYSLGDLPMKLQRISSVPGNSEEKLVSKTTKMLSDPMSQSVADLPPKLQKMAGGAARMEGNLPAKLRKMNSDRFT", "T1 sequence (P48051 1-423)": "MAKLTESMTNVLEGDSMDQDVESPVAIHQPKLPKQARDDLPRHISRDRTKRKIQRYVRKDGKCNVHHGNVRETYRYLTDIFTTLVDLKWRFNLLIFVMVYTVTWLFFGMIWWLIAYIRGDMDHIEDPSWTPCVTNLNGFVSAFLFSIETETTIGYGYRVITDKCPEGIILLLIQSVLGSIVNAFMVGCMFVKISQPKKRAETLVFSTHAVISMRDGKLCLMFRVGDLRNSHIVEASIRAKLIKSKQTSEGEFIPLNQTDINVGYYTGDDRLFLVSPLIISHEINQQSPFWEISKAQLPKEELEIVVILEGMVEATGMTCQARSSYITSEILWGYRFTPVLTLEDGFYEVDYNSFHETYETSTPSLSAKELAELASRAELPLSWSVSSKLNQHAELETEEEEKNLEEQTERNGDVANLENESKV", "experiment": "Thallium flux, pertussis toxin-treated cells co-expressing mGlu8 and GIRK1/2", "type": "cell-based", "set-up": "host or cells: HEK-293", "details": "600 ng/ml pertussis toxin; VU0456810 10 μM, glutamate 100 μM", "source_text": "Cell Line Construction and Cell Culture. HEK-293 cells co-expressing human GIRK1/2 and rat mGlu8 were generated as previously described (Niswender et al., 2008). A HEK-293 cell line (ATCC, Manassas, Va.) expressing human GIRK1 and human GIRK2 was constructed by transfecting HEK-293 cells with GIRK1 and GIRK2 (Origene, Rockville, Md.) cloned into the pBudCE4.1 vector (Life Technologies, Carlsbad, Calif.) using FuGene 6 (Promega, Madison, Wis.) transfection reagent. Unless otherwise noted, other ion channel-expressing cells were prepared by transfecting HEK-293 cells with individual or combinations of subunits: GIRK1, pCMV6-A-BSD; GIRK2, pCMV6-A-puro; GIRK3, pCMV6-A-hygro; GIRK4, pCMV6-A-AC; Kv7.4, pIRESneo3. The Kir2.1 and hERG-expressing cell lines were made by transfecting T-REx-293 cells (Life Technologies, Carlsbad, Calif.) with Kir2.1 and Kv11.1, respectively, cloned into pcDNA5TO. Monoclonal cell lines were produced by limiting-dilution cloning of antibiotic-resistant cells and functional selection using the thallium flux assay described below. Unless otherwise noted, cells were maintained in Minimal Essential Medium, Alpha Medium (Mediatech, Manassas, Va.) supplemented with 10% fetal bovine serum (Sigma-Aldrich, Saint Louis, Mo.) and GlutaGro (Mediatech, Manassas, Va.), referred to henceforth as cell culture medium. […]"}, "[2]": {"system": "GIRK", "details": "read-out: potency / reported EC50 as GIRK activator; cited from earlier work"}, "[3]": {"experiment": "Maximal electroshock (MES) model of epilepsy", "type": "in vivo, mouse", "details": "mice, i.p.; VU0456810 60 mg/kg, sodium valproate 150 mg/kg; vs vehicle", "procedure": "MES stimulation was applied, 30 minutes after injection, through transauricular (ear-clip) electrodes from an electroshock apparatus, HSE Shock Stimulator Type 221, (Harvard Apparatus, Holliston, Mass.) using the following parameters: 100-mA fixed current, a 50-60-Hz pulse frequency, a 0.6-ms pulse width and a 0.3-s stimulus duration. Animals were restrained by hand when applying the electrodes and released at the moment of stimulation to permit observation of the seizure throughout its entire course. Upon completion of the electrical stimulus, the amount of time until death was recorded. […] In this modified MES test, the electrical stimulus that was applied was sufficient to induce seizures and death from maximal seizure in 100% of the control mice.\n(§1) In all cases, experiments were conducted in a blind manner with respect to the experimenters. Data were evaluated in Excel using one-tailed, unpaired Student's t-test, assuming populations with unequal variance."}, "[4]": {"experiment": "Pentylenetetrazol (PTZ)-induced seizure model", "type": "in vivo, mouse", "details": "mice, i.p.; VU0456810 60 mg/kg, sodium valproate 150 mg/kg; PTZ 40 mg/kg; 20 minute timeframe", "procedure": "After thirty minutes, PTZ was administered intraperitoneally (i.p., 40 mg/kg). Immediately following administration of PTZ, the amount of time elapsed before the first occurrence of tremors, tonic-clonic seizures, convulsion, and death was recorded. All mice were subject to a 20-minute post-[…] cutoff.\nas §1"}}, "note": "Where “and” joins values, the source holds several entries; their conditions need not be identical. Equal values may be shown once.", "data": [{"smiles": "N[C@@H](CCC(=O)O)C(=O)O", "note": "[glutamate, reference compound]", "values": [{"measurement": "effect of pertussis toxin treatment on evoked thallium flux", "setting": "[1]", "result": "abolishing"}]}, {"smiles": "C[C@@H]1O[C@@H](O[C@H]2[C@H](Oc3cc(O)c4c(c3)O[C@H](c3ccc(O)cc3)CC4=O)O[C@H](CO)[C@@H](O)[C@@H]2O)[C@H](O)[C@H](O)[C@H]1O", "note": "[naringin]", "values": [{"measurement": "EC50", "setting": "[2]", "result": "~100 µM and > 100 µM"}]}, {"smiles": "CCCC(CCC)C(=O)[O-].[Na+]", "note": "[sodium valproate, reference compound]", "values": [{"measurement": "latency of seizure onset", "setting": "[3]", "result": "highly significant delays in seizure onset"}, {"measurement": "animals experiencing convulsions from PTZ treatment", "setting": "[4]", "result": "significant decrease"}, {"measurement": "animals surviving PTZ treatment", "setting": "[4]", "result": "significant increase"}]}]}
